Our source for the IC50 values is patent US20120107323A1, “KINASE PROTEIN BINDING INHIBITORS” (University of Florida, priority 2009, published 2012).

For this assay, the target named is T1, FAK and IGF-1R (Homo sapiens, UniProt Q05397).
T1 construct: endogenous in cells; host or cells: C8161 (A2) and A375 (A3) melanoma cells
The assay is described as follows: Coimmunoprecipitation of FAK and IGF-1R in C8161 melanoma cells. It counts as cell-based. To be noted: average IC50, C8161 cells, immunoprecipitation with antibody against FAK; read-out: IC50, disruption of FAK/IGF-1R binding. The text has this:
Computational Docking The crystal structures of the N-terminal domain of FAK (PDB code 2AL6) (22) and the kinase domain of IGF-1R(PDB 1P40A) (23) were utilized for in silico molecular modeling of their interaction as previously described. The three-dimensional coordinates of compound NSC344553 (INT2-31), obtained from the database of the National Cancer Institute, Developmental Therapeutics Program (NCI/DTP), were docked onto the predicted interface of the amino-terminus of FAK (amino acids 127-243) with the intracytoplasmic portion of IGF-1R (21). […] 100 orientations were created for NSC344553 in the target site and were scored using the computer program grid-based scoring function. […] The intermolecular energies for all configurations of NSC 344553 in binding to FAK-NT2 were calculated as the sum of electrostatic and van der Waals energies. These energy terms were evaluated as correlation functions, which were computed efficiently with Fast Fourier Transforms. […] Bound proteins were boiled in 6× Laemmli buffer and analyzed by SDS-PAGE and Western blotting. […] The intensity of the bands in the western blots was measured with scion image analysis software program. […]

T1 sequence (Q05397 2-1052 limits assumed): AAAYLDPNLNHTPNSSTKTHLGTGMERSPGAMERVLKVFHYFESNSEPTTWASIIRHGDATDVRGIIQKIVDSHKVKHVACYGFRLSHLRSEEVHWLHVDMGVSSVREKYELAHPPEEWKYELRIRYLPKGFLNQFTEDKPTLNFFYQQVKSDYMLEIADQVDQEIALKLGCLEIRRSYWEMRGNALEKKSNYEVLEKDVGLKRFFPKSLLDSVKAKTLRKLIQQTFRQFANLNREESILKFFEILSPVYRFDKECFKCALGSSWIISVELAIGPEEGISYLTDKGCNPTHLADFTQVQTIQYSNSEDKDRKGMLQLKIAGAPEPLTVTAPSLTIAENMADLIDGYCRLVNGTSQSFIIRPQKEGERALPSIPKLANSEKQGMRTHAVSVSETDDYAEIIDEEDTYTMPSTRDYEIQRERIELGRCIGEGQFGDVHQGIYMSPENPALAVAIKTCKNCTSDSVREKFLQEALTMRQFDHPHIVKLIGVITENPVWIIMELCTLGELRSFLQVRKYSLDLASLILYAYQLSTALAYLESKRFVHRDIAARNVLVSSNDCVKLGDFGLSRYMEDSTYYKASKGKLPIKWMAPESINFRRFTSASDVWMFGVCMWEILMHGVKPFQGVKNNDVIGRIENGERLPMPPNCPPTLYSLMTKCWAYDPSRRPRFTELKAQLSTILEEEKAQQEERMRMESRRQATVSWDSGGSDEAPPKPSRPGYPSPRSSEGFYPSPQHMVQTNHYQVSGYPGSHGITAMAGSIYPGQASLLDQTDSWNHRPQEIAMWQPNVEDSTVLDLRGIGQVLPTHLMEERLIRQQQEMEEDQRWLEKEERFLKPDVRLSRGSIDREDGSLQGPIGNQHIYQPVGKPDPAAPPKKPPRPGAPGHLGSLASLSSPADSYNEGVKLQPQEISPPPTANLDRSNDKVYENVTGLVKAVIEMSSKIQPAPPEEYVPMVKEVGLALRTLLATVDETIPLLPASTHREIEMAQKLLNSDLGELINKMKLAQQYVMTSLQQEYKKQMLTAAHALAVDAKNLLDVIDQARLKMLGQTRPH

Take `CSc1ncnc2c1ccn2C1O[C@H](COP(=O)(O)O)[C@@H](O)[C@H]1O` (stereo partly drawn) [INT2-31, 4-(Methylthio)-7-(5-O-phosphono-D-ribofuranosyl)-{7H-Pyrrolo[2,3-d]pyrimidine}]: the IC50 is 2720 nM.
